Measured values taken from ChEMBL document CHEMBL1141566, “Synthesis and antitumor evaluation of bis aza-anthracene-9,10-diones and bis aza-anthrapyrazole-6-ones” (2008).

Tests used:
[1] = tested on: HT-29; experiment: Effect on apoptosis in human HT29 PI+/AnnV- cells after 6 hrs by biparametric flow cytometric analysis; assay type: functional; details: HT-29, 6 h, read-out: LC50 (the source's name)
[2] = tested on: HT-29; experiment: Effect on apoptosis in human HT29 PI-/AnnV- cells after 6 hrs by biparametric flow cytometric analysis; assay type: functional; details: HT-29, 6 h, read-out: LC50 (the source's name)
[3] = tested on: HT-29; experiment: Effect on apoptosis in human HT29 PI-/AnnV+ cells after 6 hrs by biparametric flow cytometric analysis; assay type: functional; details: HT-29, 6 h, read-out: LC50 (the source's name)
[4] = tested on: HT-29; experiment: Effect on apoptosis in human HT29 PI+/AnnV+ cells after 24 hrs by biparametric flow cytometric analysis; assay type: functional; details: HT-29, 24 h, read-out: LC50 (the source's name)
[5] = tested on: HT-29; experiment: Effect on apoptosis in human HT29 PI+/AnnV+ cells after 6 hrs by biparametric flow cytometric analysis; assay type: functional; details: HT-29, 6 h, read-out: LC50 (the source's name)
[6] = tested on: HT-29; experiment: Effect on apoptosis in human HT29 PI+/AnnV- cells after 12 hrs by biparametric flow cytometric analysis; assay type: functional; details: HT-29, 12 h, read-out: LC50 (the source's name)
[7] = tested on: HT-29; experiment: Effect on apoptosis in human HT29 PI+/AnnV+ cells after 12 hrs by biparametric flow cytometric analysis; assay type: functional; details: HT-29, 12 h, read-out: LC50 (the source's name)
[8] = tested on: HT-29; experiment: Effect on apoptosis in human HT29 PI-/AnnV- cells after 12 hrs by biparametric flow cytometric analysis; assay type: functional; details: HT-29, 12 h, read-out: LC50 (the source's name)
[9] = tested on: HT-29; experiment: Effect on apoptosis in human HT29 PI-/AnnV- cells after 24 hrs by biparametric flow cytometric analysis; assay type: functional; details: HT-29, 24 h, read-out: LC50 (the source's name)
[10] = tested on: HT-29; experiment: Effect on apoptosis in human HT29 PI-/AnnV+ cells after 24 hrs by biparametric flow cytometric analysis; assay type: functional; details: HT-29, 24 h, read-out: LC50 (the source's name)
[11] = tested on: HT-29; experiment: Effect on apoptosis in human HT29 PI-/AnnV+ cells after 12 hrs by biparametric flow cytometric analysis; assay type: functional; details: HT-29, 12 h, read-out: LC50 (the source's name)
[12] = tested on: HT-29; experiment: Cytotoxicity against human HT29 cells after 72 hrs; assay type: functional; details: HT-29, 72 h
[13] = tested on: HT-29; experiment: Effect on apoptosis in human HT29 PI+/AnnV- cells after 24 hrs by biparametric flow cytometric analysis; assay type: functional; details: HT-29, 24 h, read-out: LC50 (the source's name)
[14] = Ratio of Kapp for synthetic poly(dA-dT)]2 oligonucleotide to Kapp for synthetic poly(dG-dC)]2 oligonucleotide

Row | Structure (SMILES) | GI50 [12] [µM] | TGI [12] [µM] | Ratio [14] | LC50 (concentration killing 50% of cells) [12] [µM] | also measured
1 | NCCNc1ccc(NCCN)c2c1C(=O)c1ccncc1C2=O [PIXANTRONE] | 0.0012 | 3.2 | – | – | CC50 [1]: 4.8 µM; CC50 [2]: 60.4 µM; CC50 [3]: 32.5 µM; CC50 [4]: 6.2 µM; CC50 [5]: 2.3 µM; CC50 [6]: 5.1 µM; CC50 [7]: 6.1 µM; CC50 [8]: 50.4 µM; CC50 [9]: 41.6 µM; CC50 [10]: 41 µM; CC50 [11]: 38.4 µM; CC50 [13]: 11.2 µM
2 | CN(C)CCCNc1ccc(NCCCN(C)CCCNc2ccc(NCCCN(C)C)c3c2C(=O)c2cnccc2C3=O)c2c1C(=O)c1ccncc1C2=O | 2 | 7.9 | 2.4 | > 100 | –
3 | CCN(CC)CCn1nc2c3c(c(NCCCN(C)CCCNc4ccc5c6c(nn5CCN(CC)CC)-c5ccncc5C(=O)c46)ccc31)C(=O)c1cnccc1-2 | 0.4 | > 100 | – | > 100 | –
4 | CN(CCCNc1ccc(NCCN2CCCC2)c2c1C(=O)c1cnccc1C2=O)CCCNc1ccc(NCCN2CCCC2)c2c1C(=O)c1cnccc1C2=O | 0.5 | 7.9 | 2.4 | > 100 | –
5 | CN(C)CCCn1nc2c3c(c(NCCCN(C)CCCNc4ccc5c6c(nn5CCCN(C)C)-c5cnccc5C(=O)c46)ccc31)C(=O)c1ccncc1-2 | 1.6 | > 100 | – | > 100 | –
6 | CN(C)CCCNc1ccc(NCCCN(C)CCCNc2ccc(NCCCN(C)C)c3c2C(=O)c2ccncc2C3=O)c2c1C(=O)c1cnccc1C2=O | > 100 | – | 1.9 | – | –
7 | CCN(CC)CCn1nc2c3c(c(NCCCN(C)CCCNc4ccc5c6c(nn5CCN(CC)CC)-c5cnccc5C(=O)c46)ccc31)C(=O)c1ccncc1-2 | 0.001 | 4.5 | – | 97 | –
